Data reported in patent US9828379B2 (priority 2013, dated 2017).

Assays:
ABHD6 [1] = biological target: T1, ABHD6 (Mus musculus, UniProt Q8R2Y0); assay: biochemical; conditions: in vitro competitive ABPP
T1 sequence (Q8R2Y0 1-336): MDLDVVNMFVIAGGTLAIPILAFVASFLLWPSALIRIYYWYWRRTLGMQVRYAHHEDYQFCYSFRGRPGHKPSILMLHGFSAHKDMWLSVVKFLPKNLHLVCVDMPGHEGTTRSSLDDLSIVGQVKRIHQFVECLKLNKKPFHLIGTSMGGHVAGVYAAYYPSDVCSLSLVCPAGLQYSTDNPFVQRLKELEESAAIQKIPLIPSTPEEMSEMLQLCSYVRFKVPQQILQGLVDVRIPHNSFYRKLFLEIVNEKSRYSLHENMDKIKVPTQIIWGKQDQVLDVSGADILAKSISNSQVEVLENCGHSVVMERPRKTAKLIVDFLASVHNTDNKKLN

MAGL [2] = biological target: T2, MAGL (Mus musculus, UniProt O35678); assay: biochemical; conditions: mouse; in vitro competitive ABPP; read-out: Mouse (IC50 value, nM) MAGL
T2 sequence (O35678 1-303): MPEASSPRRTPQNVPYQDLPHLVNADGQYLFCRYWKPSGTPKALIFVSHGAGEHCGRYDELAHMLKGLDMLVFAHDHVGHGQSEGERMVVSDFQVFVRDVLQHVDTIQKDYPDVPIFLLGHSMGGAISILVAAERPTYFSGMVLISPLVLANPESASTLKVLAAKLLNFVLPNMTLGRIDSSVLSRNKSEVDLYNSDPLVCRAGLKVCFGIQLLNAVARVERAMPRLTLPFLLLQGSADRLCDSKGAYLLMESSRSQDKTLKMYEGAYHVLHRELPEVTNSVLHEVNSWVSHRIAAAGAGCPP

ABHD6 [3] = biological target: T1, ABHD6; assay: In vitro competitive activity-based protein profiling (Table 2, % inhibition at 1 μM); assay type: biochemical; conditions: read-out: % Inhibition at 1 μM ABHD6
FAAH [4] = biological target: T3, FAAH (Mus musculus, UniProt O08914); assay: as above; assay type: biochemical; conditions: read-out: % Inhibition at 1 μM FAAH
T3 sequence (O08914 1-579): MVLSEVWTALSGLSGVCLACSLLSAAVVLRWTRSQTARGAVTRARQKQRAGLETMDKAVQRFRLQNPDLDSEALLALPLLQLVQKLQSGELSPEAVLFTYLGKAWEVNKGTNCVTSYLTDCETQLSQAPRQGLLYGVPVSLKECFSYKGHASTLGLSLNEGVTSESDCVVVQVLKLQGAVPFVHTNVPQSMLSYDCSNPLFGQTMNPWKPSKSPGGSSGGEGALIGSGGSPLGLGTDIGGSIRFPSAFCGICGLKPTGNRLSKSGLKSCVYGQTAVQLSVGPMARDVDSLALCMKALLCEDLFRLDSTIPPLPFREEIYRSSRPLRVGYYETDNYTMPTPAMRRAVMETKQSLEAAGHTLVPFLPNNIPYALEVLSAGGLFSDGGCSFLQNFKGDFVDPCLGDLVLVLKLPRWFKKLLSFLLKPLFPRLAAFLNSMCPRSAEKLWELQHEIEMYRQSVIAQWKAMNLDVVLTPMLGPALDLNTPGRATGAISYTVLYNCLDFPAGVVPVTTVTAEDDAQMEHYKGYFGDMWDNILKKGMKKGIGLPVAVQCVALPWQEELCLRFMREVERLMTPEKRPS

MAGL [5] = biological target: T2, MAGL; assay: as above; assay type: biochemical; conditions: read-out: % Inhibition at 1 μM MAGL
Description: After 30 min, FP—Rh (1.0 μL, 50 μM in DMSO) was added and the mixture was incubated for another 30 min at 37° C. Reactions were quenched with SDS loading buffer (50 μL-4×) and run on SDS-PAGE.
Cell lysates were diluted with mock proteomes for use in competitive ABPP experiments.

FAAH [6] = biological target: T3, FAAH; assay: biochemical; conditions: in vitro competitive ABPP

Row | Structure (SMILES) | IC50 (ABHD6 [1]) [nM] | IC50 (MAGL [2]) [nM] | inhibition at 1 µM (ABHD6 [3]) [%] | inhibition at 1 µM (FAAH [4]) [%] | inhibition at 1 µM (MAGL [5]) [%] | IC50 (FAAH [6]) [nM]
1 | O=C(OC(C(F)(F)F)C(F)(F)F)N1CC2CN(Cc3ccc(Cl)cc3N3CC4COCC4C3)CC2C1 (stereo not drawn) [Example 208, 1,1,1,3,3,3-hexafluoropropan-2-yl 5-(4-chloro-2-(tetrahydro-1H-furo[3,4-c]pyrrol-5(3H)-yl)benzyl)hexahydropyrrolo[3,4-c]pyrrole-2(1H)-carboxylate] | 1000 to 10000 | 100 to 1000 | < 25 | < 25 | > 75 | 1000 to 10000
2 | O=C(OC(C(F)(F)F)C(F)(F)F)N1CC2CN(Cc3ccc(C(F)F)cc3N3CCOCC3)CC2C1 (stereo not drawn) [Example 203, 1,1,1,3,3,3-hexafluoropropan-2-yl 5-(4-(difluoromethyl)-2-morpholinobenzyl)hexahydropyrrolo[3,4-c]pyrrole-2(1H)-carboxylate] | 1000 to 10000 | < 100 | 25 to 75 | < 25 | > 75 | 1000 to 10000
3 | CCN1CCN(c2c(C)cccc2CN2CC3CN(C(=O)OC(C(F)(F)F)C(F)(F)F)CC3C2)CC1 (stereo not drawn) [Example 148, 1,1,1,3,3,3-hexafluoropropan-2-yl 5-[[2-(4-ethylpiperazin-1-yl)-3-methylphenyl]methyl]-octahydropyrrolo[3,4-c]pyrrole-2-carboxylate] | 1000 to 10000 | 100 to 1000 | < 25 | < 25 | > 75 | > 10000
4 | C#CCNC(=O)c1nn(CC)cc1CN1CC2CN(C(=O)OC(C(F)(F)F)C(F)(F)F)CC2C1 (stereo not drawn) [Example 178, 1,1,1,3,3,3-hexafluoropropan-2-yl 5-((1-ethyl-3-(prop-2-yn-1-ylcarbamoyl)-1H-pyrazol-4-yl)methyl)hexahydropyrrolo[3,4-c]pyrrole-2(1H)-carboxylate] | 1000 to 10000 | 100 to 1000 | < 25 | < 25 | > 75 | > 10000
5 | Cc1ccc(CN2CC3CN(C(=O)OC(C(F)(F)F)C(F)(F)F)CC3C2)cc1-c1ccccc1 (stereo not drawn) [Example 206, 1,1,1,3,3,3-hexafluoropropan-2-yl 5-((6-methyl-[1,1′-biphenyl]-3-yl)methyl)hexahydropyrrolo[3,4-c]pyrrole-2(1H)-carboxylate] | 1000 to 10000 | 100 to 1000 | 25 to 75 | 25 to 75 | > 75 | 1000 to 10000
6 | O=C(OC(C(F)(F)F)C(F)(F)F)N1CC2CN(Cc3ccc(Cl)cc3N3CCn4ccnc4C3)CC2C1 (stereo not drawn) [Example 33, 1,1,1,3,3,3-Hexafluoropropan-2-yl 5-[(4-chloro-2-[5H,6H,7H,8H-imidazo[1,2-a]pyrazin-7-yl]phenyl)methyl]-octahydropyrrolo[3,4-c]pyrrole-2-carboxylate] | 1000 to 10000 | < 100 | 25 to 75 | 25 to 75 | > 75 | 1000 to 10000
7 | Cc1c(CN2CC3CN(C(=O)OC(C(F)(F)F)C(F)(F)F)CC3C2)cccc1C(=O)N1CCCC1 (stereo not drawn) [Example 186, 1,1,1,3,3,3-hexafluoropropan-2-yl 5-(2-methyl-3-(pyrrolidine-1-carbonyl)benzyl)hexahydropyrrolo[3,4-c]pyrrole-2(1H)-carboxylate] | 1000 to 10000 | < 100 | 25 to 75 | < 25 | > 75 | 1000 to 10000
8 | Cn1nc(-c2cccc(F)c2)cc1CN1CC2CN(C(=O)OC(C(F)(F)F)C(F)(F)F)CC2C1 (stereo not drawn) [Example 195, 1,1,1,3,3,3-hexafluoropropan-2-yl 5-((3-(3-fluorophenyl)-1-methyl-1H-pyrazol-5-yl)methyl)hexahydropyrrolo[3,4-c]pyrrole-2(1H)-carboxylate] | 100 to 1000 | < 100 | 25 to 75 | < 25 | > 75 | 1000 to 10000
9 | O=C(OC(C(F)(F)F)C(F)(F)F)N1CC2CN(Cc3ccc(N4CCOCC4)cc3C(F)(F)F)CC2C1 (stereo not drawn) [Example 10, 1,1,1,3,3,3-Hexafluoropropan-2-yl 5-[[4-(morpholin-4-yl)-2-(trifluoromethyl)phenyl]methyl]-octahydropyrrolo[3,4-c]pyrrole-2-carboxylate] | 1000 to 10000 | < 100 | < 25 | 25 to 75 | > 75 | 100 to 1000
10 | Cc1c(CN2CC3CN(C(=O)OC(C(F)(F)F)C(F)(F)F)CC3C2)cccc1N1CCN(S(C)(=O)=O)CC1 (stereo not drawn) [Example 150, 1,1,1,3,3,3-hexafluoropropan-2-yl 5-[[3-(4-methanesulfonylpiperazin-1-yl)-2-methylphenyl]methyl]-octahydropyrrolo[3,4-c]pyrrole-2-carboxylate] | 1000 to 10000 | < 100 | < 25 | 25 to 75 | > 75 | 1000 to 10000
11 | O=C(ON1C(=O)CCC1=O)N1CC2CN(Cc3ccc(N4CCOCC4)cc3C(F)(F)F)CC2C1 (stereo not drawn) [Example 85, 2,5-Dioxopyrrolidin-1-yl 5-[[4-(morpholin-4-yl)-2-(trifluoromethyl)phenyl]methyl]-octahydropyrrolo[3,4-c]pyrrole-2-carboxylate] | 1000 to 10000 | 100 to 1000 | < 25 | 25 to 75 | > 75 | 100 to 1000
12 | CC(=O)NC1CCN(c2cccc(CN3CC4CN(C(=O)OC(C(F)(F)F)C(F)(F)F)CC4C3)c2C)CC1 (stereo not drawn) [Example 151, 1,1,1,3,3,3-hexafluoropropan-2-yl 5-[[3-(4-acetamidopiperidin-1-yl)-2-methylphenyl]methyl]-octahydropyrrolo[3,4-c]pyrrole-2-carboxylate] | 1000 to 10000 | < 100 | 25 to 75 | < 25 | > 75 | 1000 to 10000
13 | O=C(OC(C(F)(F)F)C(F)(F)F)N1CC2CN(Cc3ccc(Cl)cc3N3Cc4cccnc4C3)CC2C1 (stereo not drawn) [Example 32, 1,1,1,3,3,3-Hexafluoropropan-2-yl 5-[(4-chloro-2-[5H,6H,7H-pyrrolo[3,4-b]pyridin-6-yl]phenyl)methyl]-octahydropyrrolo[3,4-c]pyrrole-2-carboxylate] | 1000 to 10000 | < 100 | 25 to 75 | 25 to 75 | > 75 | 1000 to 10000
14 | O=C(OC(C(F)(F)F)C(F)(F)F)N1CC2CN(Cc3ccc(Cl)cc3N3CCN4CCC[C@@H]4C3)CC2C1 (stereo partly drawn) [Example 35, 1,1,1,3,3,3-Hexafluoropropan-2-yl 5-(4-chloro-2-((R)-hexahydropyrrolo[1,2-a]pyrazin-2(1H)-yl)benzyl)-hexahydropyrrolo[3,4-c]pyrrole-2(1H)-carboxylate] | 1000 to 10000 | 100 to 1000 | < 25 | < 25 | > 75 | > 10000
15 | CCn1ncc(CN2CC3CN(C(=O)OC(C(F)(F)F)C(F)(F)F)CC3C2)c1C(=O)NCc1ccccc1 (stereo not drawn) [Example 75, 1,1,1,3,3,3-Hexafluoropropan-2-yl 5-((5-(benzylcarbamoyl)-1-ethyl-1H-pyrazol-4-yl)methyl)hexahydropyrrolo[3,4-c]pyrrole-2(1H)-carboxylate] | 100 to 1000 | < 100 | > 75 | < 25 | > 75 | 1000 to 10000
